Laboratory results published in article PMC11939078, “TAK-994 mechanistic investigation into drug-induced liver injury” (Toxicological Sciences, 2025).

How the values were obtained:
[1] = test system: PXB cells (human hepatocytes); test: CLF efflux (bile transport) assay in PXB cells; type: cell-based; details: n = 3
Protocol: Cholyl-lysyl-fluorescein (CLF) efflux for TAK-994 was assessed using human hepatocytes implanted into PXB-mice. PXB cells were exposed to TAK-994 (0.3, 1, 3, 10, 30, and 100 μM) or vehicle for 2 h and then incubated for an additional 30 min with TAK-994 or vehicle containing 5 μM CLF. CLF efflux and its inhibition by TAK-994 were assessed by fluorescence analysis.
PXB hepatocytes were generated by implanting human hepatocytes into PXB-mice®. These hepatocytes were isolated by collagenase perfusion at PhoenixBio Co Ltd. Freshly isolated hepatocytes were maintained in T-75 flasks and detached using 0.25% trypsin/ethylenediaminetetraacetic acid (EDTA) incubation for 20 minutes (total) using the following procedure. A flash wash was performed with cold trypsin/EDTA, followed by a 5-minute incubation with cold trypsin/EDTA at 37°C, and finally a 15-minute incubation at 37°C with trypsin/EDTA. […]
On Day 8, PXB cells were exposed to TAK-994 (0.3, 1, 3, 10, 30, and 100 μM) or 0.1% DMSO for 2 hours and then incubated for an additional 30 minutes with TAK-994 or […] containing 5 μM CLF. […] The CLF efflux and its inhibition by TAK-994 was quantified using Developer toolbox software. […] The fluorescent intensities of bile canalicular regions were measured to determine the IC50 for TAK-994 CLF efflux inhibition. […]

[2] = test system: Rat; test: Rat 26-week oral gavage toxicity study; type: in vivo; details: for Histopathological Liver Findings / ALT / AST / GLDH: rat 26-week; for ALT / AST / GLDH: mean (SD)
Excerpt: TAK-994 performed well in tiered safety screening assays, with wide margins between in vitro IC50 and the predicted efficacious exposures (Table 1). […] Based on the safety profiles observed in these animal studies, TAK-994 progressed into phase I clinical trials.
^aAll dose levels had 15 animals per sex. No statistical difference was observed between the TAK-994 and control groups.

[3] = test system: HepG2 cells; test: HepG2 Glu/Gal 24-h cytotoxicity (mitochondrial toxicity); type: cell-based, human; details: glucose or galactose medium
Protocol: (§1) Cytotoxicity of TAK-994 was evaluated in glucose or galactose medium after 24 h and in glucose medium after 72 h in HepG2 cells, with cryopreserved HepG2 cells thawed and seeded onto assay plates at 5,000 cells/well in glucose or galactose medium for the 24-h assay and at 2,500 cells/well in glucose medium for the 72-h assay. After ∼24 h of incubation at 37 °C in 5% CO2, the cells were incubated with test solutions under the same conditions for 24 h for the plate with 5,000 cells/well or 72 h for the plate with 2,500 cells/well. Cytotoxicity of TAK-994 was also assessed using HepG2 cells with CYP3A4 overexpression using a lentivirus vector. HepG2/CYP3A4 cells were incubated in media containing TAK-994 (0.09 to 200 μM), positive control aflatoxin B1 (0.04 to 80 μM), or 1.0% DMSO (negative control). In both cytotoxicity assays, adenosine triphosphate (ATP) content was assessed after incubation using a commercial luminescence assay (CellTiter-Glo; Promega Co., Ltd, WI, United States).
HepG2 cells (American Type Culture Collection [ATCC, VA, USA]) were acclimated to Dulbecco's Modified Eagle Medium (DMEM; Thermo Fisher Scientific, MA, USA) with either high glucose or high galactose and containing 10% FBS for 1 week then cryopreserved. […] After the incubation, CellTiter-Glo® (Promega Co., Ltd., WI, USA) was added to the assay plates, cells were incubated for 30 minutes, and luminescence was recorded to measure the ATP content using an EnVision plate reader (PerkinElmer Co., Ltd., MA, USA). The test compound TAK-994 was evaluated at concentrations of 0.046, 0.14, 0.41, 1.2, 3.7, 11, 33, and 100 μM. Positive controls rotenone and staurosporine were purchased from FUJIFILM Wako Pure Chemical Corporation (Osaka, Japan) and evaluated at concentrations of 0.046, 0.14, 0.41, 1.2, 3.7, 11, 33, and 100 μM in DMSO (rotenone) or 0.0046, 0.014, 0.041, 0.12, 0.37, 1.1 , 3.3, and 10 μM in DMSO (staurosporine). […]

[4] = test system: HepG2; test: Mito Stress Test (Seahorse, ECAR and OCR); type: cell-based, human; details: 3, 10, 30, and 100 μM
[5] = test system: HepG2 cells; test: HepG2 72-h cytotoxicity assay (glucose medium, ATP content); type: cell-based, human
Protocol: as §1
HepG2 cells (American Type Culture Collection [ATCC, VA, USA]) were acclimated to Dulbecco's Modified Eagle Medium (DMEM; Thermo Fisher Scientific, MA, USA) with either high glucose or high galactose and containing 10% FBS for 1 week then cryopreserved. The cryopreserved HepG2 cells were thawed, cultured for 24 hours, then seeded at 5000 cells/well in glucose or galactose medium for the 24-hour assay and at 2500 cells/well in glucose medium for the 72-hour assay onto the assay plates. After approximately 24 hours of incubation at 37°C in 5% CO2, the cells were incubated with test solutions under the same conditions for 24 hours for the plate with 5000 cells/well or 72 hours for the plate with 2500 cells/well. After the incubation, CellTiter-Glo® (Promega Co., Ltd., WI, USA) was added to the assay plates, cells were incubated for 30 minutes, and luminescence was recorded to measure the ATP content using an EnVision plate reader (PerkinElmer Co., Ltd., MA, USA). The test compound TAK-994 was evaluated at concentrations of 0.046, 0.14, 0.41, 1.2, 3.7, 11, 33, and 100 μM. Positive controls rotenone and staurosporine were purchased from FUJIFILM Wako Pure Chemical Corporation (Osaka, Japan) and evaluated at concentrations of 0.046, 0.14, 0.41, 1.2, 3.7, 11, 33, and 100 μM in DMSO (rotenone) or 0.0046, 0.014, 0.041, 0.12, 0.37, 1.1 , 3.3, and 10 μM in DMSO (staurosporine). Two experiments were conducted at each concentration.
Inhibition rate (%) = (1-mean of sample values / mean of Max values) × 100, where Max values = vehicle control.

Q: With `CC(C)(O)C(=O)N1CC[C@H](NS(C)(=O)=O)[C@@H]1Cc1cccc(-c2cc(F)cc(F)c2)c1F.CC(C)(O)C(=O)N1CC[C@H](NS(C)(=O)=O)[C@@H]1Cc1cccc(-c2cc(F)cc(F)c2)c1F.O.O.O` [TAK-994] as the compound, how does the IC50 [1] read?
A: The IC50 was 30 µM.

Q: What about the “Histopathological Liver Findings” value ([2]; female, 50 mg/kg) of the same compound?
A: Its value is “No adverse findings”.

Q: What about the ALT ([2]; female, 50 mg/kg) of the same compound?
A: Its ALT is 35 (12) IU/L.

Q: And the AST ([2]; female, 50 mg/kg)?
A: The AST was 64 (38) IU/L.

Q: What about the GLDH ([2]; female, 50 mg/kg) of the same compound?
A: The GLDH was 41 (78) IU/L.

Q: What about the “Histopathological Liver Findings” value ([2]; female, 150 mg/kg) of the same compound?
A: The value was “No adverse findings”.

Q: What about the ALT ([2]; female, 150 mg/kg) of the same compound?
A: Its ALT is 37 (8) IU/L.

Q: And the AST ([2]; female, 150 mg/kg)?
A: Its AST is 53 (13) IU/L.

Q: What about the GLDH ([2]; female, 150 mg/kg) of the same compound?
A: The GLDH was 12 (14) IU/L.

Q: And the “Histopathological Liver Findings” value ([2]; female, 1000 mg/kg)?
A: The value was “No adverse findings”.

Q: What about the ALT ([2]; female, 1000 mg/kg) of the same compound?
A: Its ALT is 44 (14) IU/L.

Q: And the AST ([2]; female, 1000 mg/kg)?
A: The AST was 51 (6) IU/L.

Q: What about the GLDH ([2]; female, 1000 mg/kg) of the same compound?
A: Its GLDH is 6 (4) IU/L.

Q: What about the “Histopathological Liver Findings” value ([2]; male, 50 mg/kg) of the same compound?
A: Its value is “No adverse findings”.

Q: What about the ALT ([2]; male, 50 mg/kg) of the same compound?
A: The ALT was 29 (6) IU/L.

Q: What about the AST ([2]; male, 50 mg/kg) of the same compound?
A: The AST was 53 (8) IU/L.

Q: And the GLDH ([2]; male, 50 mg/kg)?
A: Its GLDH is 12 (8) IU/L.

Q: What about the “Histopathological Liver Findings” value ([2]; male, 150 mg/kg) of the same compound?
A: Its value is “No adverse findings”.

Q: And the ALT ([2]; male, 150 mg/kg)?
A: Its ALT is 38 (31) IU/L.

Q: What about the AST ([2]; male, 150 mg/kg) of the same compound?
A: The AST was 53 (11) IU/L.

Q: What about the GLDH ([2]; male, 150 mg/kg) of the same compound?
A: Its GLDH is 12 (7) IU/L.

Q: What about the “Histopathological Liver Findings” value ([2]; male, 1000 mg/kg) of the same compound?
A: Its value is “No adverse findings”.

Q: What about the ALT ([2]; male, 1000 mg/kg) of the same compound?
A: Its ALT is 31 (7) IU/L.

Q: What about the AST ([2]; male, 1000 mg/kg) of the same compound?
A: Its AST is 50 (11) IU/L.

Q: And the GLDH ([2]; male, 1000 mg/kg)?
A: The GLDH was 7 (4) IU/L.

Q: And the “adverse liver findings, chronic dose toxicity study” value ([2]; rats, 6-mo, up to the high dose tested of 1,000 mg/kg)?
A: Its value is “no adverse liver findings”.

Q: And the IC50 [3]?
A: The IC50 was greater than 100 µM.

Q: And the “changes to mitochondrial respiration (media acidification and oxygen consumption rate)” value [4]?
A: The value was “no TAK-994-induced changes to mitochondrial respiration”.

Q: And the IC50 [5]?
A: Its IC50 is greater than 100 µM.

Q: What about the “cytotoxicity margin (Cmax/IC50)” value [5] of the same compound?
A: The value was greater than 100 ×.

Q: And the “top test concentration (100 µM) relative to Cmax in patients” value ([5]; human)?
A: Its value is roughly 100 fold.
